Test results as given in US9232796B2, “Herbicidal compositions comprising 4-amino-3-chloro-5-fluoro-6-(4-chloro-2-fluoro-3-methoxyphenyl) pyridine-2-carboxylic acid or a derivative thereof and acetyl-CoA carboxylase (ACCase) inhibitors” (DOW AGROSCIENCES LLC, priority 2012, dated 2016).

Tested on: DIGSA
Assay: Example I postemergence foliar-applied, greenhouse, direct seeded rice weeds
Type: in vivo, Digitaria sanguinalis (L.) Scop.
Description: Seeds or nutlets of the desired test plant species were planted in a soil matrix prepared by mixing a loam or sandy loam soil (e.g., 28.6 percent silt, 18.8 percent clay, and 52.6 percent sand, with a pH of about 5.8 and an organic matter content of about 1.8 percent) and calcareous grit in an 80 to 20 ratio. The soil matrix was contained in plastic pots with a volume of 1 quart and a surface area of 83.6 square centimeters (cm^2). When required to ensure good germination and healthy plants, a fungicide treatment and/or other chemical or physical treatment was applied. The plants were grown for 8-22 days in a greenhouse with an approximate 14 hr. photoperiod which was maintained at about 29° C. during the day and 26° C. during the night. Nutrients (Peters Excel® 15-5-15 5-Ca 2-Mg and iron chelate) were applied in the irrigation solution as needed and water was added on a regular basis. Supplemental lighting was provided with overhead metal halide 1000-Watt lamps as necessary. The plants were employed for testing when they reached the first through fourth true leaf stage.
Treatments consisted of the acid or esters of 4-amino-3-chloro-5-fluoro-6-(4-chloro-2-fluoro-3-methoxy-phenyl)pyridine-2-carboxylic acid (Compound A), each formulated as an SC (suspension concentrate), and various herbicidal components alone and in combination. […]
Treatment requirements were calculated based upon the rates being tested, the concentration of active ingredient or acid equivalent in the formulation, and a 12 mL application volume at a rate of 187 L/ha.
For treatments comprised of formulated compounds, measured amounts of compounds were placed individually in 25 mL glass vials and diluted in a volume of 1.25% (v/v) Agri-Dex® crop oil concentrated to obtain 12× stock solutions. […]
The treated plants and control plants were placed in a greenhouse as described above and watered by sub-irrigation to prevent wash-off of the test compounds. After approximately 3 weeks, the condition of the test plants as compared with that of the untreated plants was determined visually and scored on a scale of 0 to 100 percent where 0 corresponds to no injury or growth inhibition and 100 corresponds to complete kill. […]

With COc1c(Cl)ccc(-c2nc(C(=O)OCc3ccccc3)c(Cl)c(N)c2F)c1F [Compound A Benzyl Ester, benzyl ester of 4-amino-3-chloro-5-fluoro-6-(4-chloro-2-fluoro-3-methoxy-phenyl)pyridine-2-carboxylic acid] the “Visual Weed Control (%) - 20 DAA DIGSA Obs” value (shortened to “Visual Weed Control (%)”) (8 gae/ha) was 15%, the “Visual Weed Control (%)” value (16 gae/ha) was 25% and the “Visual Weed Control (%)” value (32 gae/ha) was 35%.
